This note sets out measurements from PubChem BioAssay AID366 (MTDP, 2006).

Where “and” joins values, the source holds several entries; their conditions need not be identical. Equal entries are not always repeated. Calls of active or inactive are those of the source. The rule behind the calls is not given here.

Chain of Ribonuclease H1 (Homo sapiens) (O60930 whole entry, looked up): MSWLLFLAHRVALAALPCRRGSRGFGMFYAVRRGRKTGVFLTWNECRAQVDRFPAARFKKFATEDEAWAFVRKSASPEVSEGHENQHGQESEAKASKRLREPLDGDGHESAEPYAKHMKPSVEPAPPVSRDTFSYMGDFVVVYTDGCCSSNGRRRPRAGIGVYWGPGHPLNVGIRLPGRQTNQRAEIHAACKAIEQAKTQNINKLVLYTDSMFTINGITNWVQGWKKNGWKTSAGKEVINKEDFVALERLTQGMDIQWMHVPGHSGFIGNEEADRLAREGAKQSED

This experiment has as its target Ribonuclease H1 (Homo sapiens) (UniProt O60930). Nature of the experiment: inhibition of human ribonuclease H1 activity – biochemical, FRET RNA/DNA duplex cleavage, dose response (AID 366).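 Note: potency is for inhibitors that lower RNA cleavage and so lower fluorescence.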 Particulars: human RNase H1, FRET RNA/DNA duplex cleavage, fluorescence.
`O=C1NC(=S)N(c2cccc(Cl)c2)C(=O)/C1=C\C=C\c1ccco1`: the IC50 (in general, the midpoint of a concentration-inhibition curve) was 6000 nM. The same measure for `Cc1sc(NC(=O)Cc2ccccc2)c(C(N)=O)c1C`: “inactive”; for `Cc1ccccc1-n1c(O)c(C=C2C=CC=N2)c(=O)[nH]c1=S`: 5000 nM. As for `O=C1C(Cl)=C(Nc2ccc(S(=O)(=O)Nc3ccccn3)cc2)C(=O)c2ccccc21`, the entry is “inactive”. As for `O=C1NC(=S)N(c2ccc(Cl)cc2)C(=O)/C1=C/c1ccc(Br)o1`, the figure is 600 nM; as for `CC(C)c1cccc(O)c(=O)c1`, > 100000 nM (inactive). On to `CCOc1ccc(N2C(=O)/C(=C/c3ccc(Br)o3)C(=O)NC2=S)cc1`, for which the IC50 was 700 nM. With `N#Cc1c(N)nc(SCC(=O)c2ccc(O)c(O)c2)c(C#N)c1-c1ccc(O)cc1`, the concentration for half-maximal inhibition (IC50) was 1300 nM. Turning to `Cc1ccc(NC(=O)c2c(NC(=O)c3ccccc3F)sc3c2CCCCC3)cc1`, the IC50 was 320 nM. Regarding `O=C1NC(=S)N(c2ccccc2F)C(=O)/C1=C/c1ccc(I)o1`, the IC50 was 3000 nM. As for `CCOc1ccc(NC(=O)c2c(NC(=O)c3ccccc3)sc3c2CCCCC3)cc1`, the figure is 1100 nM; as for `COc1ccccc1NC(=O)c1c(NC(=O)Cc2ccccc2)sc2c1CCCCC2`, 480 nM. The same measure for `COc1ccc(C2COc3cc(O)c(O)cc3C2)cc1` (stereo not given): 2800 nM; for `S=C(Nc1ccc2c(c1)Cc1ccccc1-2)Nc1ccc2c(c1)Cc1ccccc1-2`: 1300 nM. Turning to `CC(C)OC(=O)c1cc(O)c(O)c(O)c1`, the IC50 was > 100000 nM (inactive). Take `COc1ccc(/C=C\C(=O)c2c(-c3ccccc3)c3cc(C)ccc3[nH]c2=O)c(OC)c1`: the IC50 is 8400 nM. For `C=CCN1C(=O)/C(=C\c2ccc([N+](=O)[O-])o2)C(=O)NC1=S`, the IC50 result was “inactive”. The same measure for `O=C1C=CC(=O)c2c(O)cccc21`: 500 nM; for `C=C/C(C)=C/C[C@]1(C)[C@H](C)CC[C@@]23C(=C[C@H](OC(=O)c4ccc(O)c(OC)c4)C[C@@H]12)[C@@H](OC(C)=O)O[C@H]3OC(C)=O`: 4000 nM; for `NC(=O)c1c(NC(=O)COc2ccccc2)sc2c1CCCCC2`: 3800 nM. With `O=C(O)C1CCCCC1c1c2ccc(=O)c(O)c-2oc2c(O)c(O)ccc12` (stereo not given), the IC50 is 100 nM.

On to `Cc1sc(NC(=O)c2ccco2)c(C(N)=O)c1C`, for which the IC50 entry was “inactive”.

In the case of `CC(=O)/C=C/C=C/c1ccc2c(c1)OC(CO)C(c1ccc(O)c(O)c1)O2` (stereo not given), the IC50 is 6000 nM.

Regarding `O=[N+]([O-])c1ccc2c(N=Nc3ccc4ccccc4c3O)c(O)cc(S(=O)(=O)O)c2c1`, the IC50 was 300 nM. As for `COc1cc(-c2[o+]c3cc(O)cc(O)c3cc2O)cc(O)c1O`, the figure is 2400 nM and 4000 nM.

`O=[N+]([O-])c1ccc(S(=O)(=O)Cc2ccccc2)c2nonc12`: the IC50 is 5000 nM. As for `O=C1Nc2ccc(I)cc2C1(O)N1CCOCC1` (stereo not given), the IC50 was 400 nM.

Take `C=CC(C)(C)C12CC3C(=O)N/C(=C\c4cnc[nH]4)C(=O)N3C1Nc1ccccc12` (stereo not given): the IC50 entry is “inactive”.

In the case of `C=C(C)[C@@H]1CCc2c(O)c(O)c(=O)cc(C)c2C1`, the IC50 was 3800 nM. On to `Cc1ccc(-c2c(C#N)c(SCC(=O)c3ccc(O)c(O)c3)nc3c2CCCC3)o1`, for which the IC50 was 1500 nM.

For the compound `CCCCCCCCCCCCCCCC(=O)OCC1OC(n2ccc(N)nc2=O)C(O)C1O` (stereo not given), the IC50 was 600 nM. As for `CCOc1ccc(C2=CC(=O)C=CC2=O)cc1`, the figure is 5700 nM.

Regarding `O=C1C(Cl)=C(NC(=O)c2ccccc2)C(=O)C(Cl)=C1NC(=O)c1ccccc1`, the IC50 entry is “inactive”. As for `O=C(N/N=C/c1ccc(/C=N/NC(=O)c2ccc(O)c(O)c2)cc1)c1ccc(O)c(O)c1`, the figure is 40 nM. Consider `O=C1C=CC(=O)C(c2cccc(Cl)c2)=C1`, for which the IC50 was 3900 nM. As for `O=C1CC(=O)c2ccc3c4c(ccc1c24)C(=O)CC3=O`, the figure is 400 nM; as for `Cc1ccc(N2C(=O)/C(=C/c3ccc(O)c(O)c3)SC2=S)cc1C`, 4000 nM; as for `N#Cc1c(NC(=O)C(F)(F)F)sc2c3c(=O)c4ccccc4c(=O)c=3oc3ccccc3c12`, “inactive”. As for `CCOc1cccc(N2C(=O)/C(=C/c3cn(CC(=O)OC)c4ccccc34)C(=O)NC2=S)c1`, the figure is 920 nM; as for `Cc1ccc(S(=O)(=O)N=C2C=C(Cl)C(=O)C(Br)=C2)cc1`, 4700 nM.

With `O=c1c(O)c(-c2cc(O)c(O)c(O)c2)oc2cc(O)cc(O)c12`, the IC50 was 3000 nM. In the case of `O=C1c2ccc(O)cc2C(=O)c2c1ccc(O)c2O`, the half-maximal inhibitory concentration (IC50) was 7000 nM. Consider `Cc1ccc(S(=O)(=O)/N=C2\C=CC(=O)C=C2Cl)cc1`, for which the IC50 is 3400 nM. Turning to `Cc1sc2nc(-c3ccc([N+](=O)[O-])cc3)[nH]c(=O)c2c1C`, the IC50 is 900 nM. For the compound `O=C1C(Cl)=C/C(=N\S(=O)(=O)c2ccccc2)C(Cl)=C1Cl`, the IC50 is 4100 nM. As for `O=C1/C(=C/c2ccc(O)c(O)c2)SC(=S)N1C1CCCCC1`, the IC50 was 1800 nM. As for `CCCc1cc(=O)oc2c3c(c4c(c12)OC(C)(C)C=C4)O[C@H](C)[C@@H](C)[C@H]3OC`, the figure is 4900 nM.

For `CCOc1ccc(NC(=O)c2c(NC(=O)c3ccco3)sc3c2CCCCC3)cc1`, the IC50 is 2100 nM. As for `CC(=O)O[C@H](C)[C@@H]1C2=C(C(=O)C[C@]1(C)O)C(=O)c1c(ccc(-c3ccc4c(c3O)C(=O)C3=C(C4=O)[C@@H]([C@@H](C)OC(C)=O)[C@@](C)(O)CC3=O)c1O)C2=O`, the figure is 6000 nM.

As to `Cc1sc(NC(=O)c2cccc([N+](=O)[O-])c2)c(C(N)=O)c1C`, the IC50 is 700 nM.

For the compound `Oc1cc(O)c2cc(O)c(-c3ccc(O)c(O)c3)[o+]c2c1`, the half-inhibitory concentration (IC50) was 100 nM. Turning to `Cc1ccc(-n2c(/C=C/c3ccc(O)c(O)c3)nc3ccccc3c2=O)cc1`, the IC50 is 7300 nM. On to `COc1ccc2oc(=O)c(-c3csc(Nc4ccc(Br)cc4)n3)cc2c1`, for which the IC50 was 900 nM. As for `CCc1c(O)c2c(c(O)c1C(C)=O)C(=O)c1c(cc(O)c(C(=O)O)c1C(=O)O)C2=O`, the figure is 3600 nM; as for `C[C@]12Cc3cnc(-c4ccccc4)nc3C[C@@H]1CC[C@@H]1[C@@H]2CC[C@@]2(C)[C@H]1CC[C@]2(C)O`, 2800 nM; as for `Cc1cccc(NC(=O)c2c(NC(=O)c3ccc([N+](=O)[O-])cc3)sc3c2CCCC3)c1`, 580 nM.

As to `C=CC1=C(C)C2=NC1=CC1=NC(=CC3=C(C)C4=C(O)C(C(=O)OC)C(=C5NC(=C2)C(C)C5CCC(=O)OC/C=C(\C)CCCC(C)CCCC(C)CCCC(C)C)C4=N3)C(CC)=C1C` (stereo not given), the IC50 is > 100000 nM (inactive). As for `Nc1nc(Sc2ccc([N+](=O)[O-])c3nonc23)c2[nH]cnc2n1`, the entry is “inactive”. As for `COC(=O)c1c(N)sc(C(=O)Nc2ccc(OC)cc2)c1C`, the entry is “inactive”. As for `O=C(O)CCc1c2ccc(=O)c(O)c-2oc2c(O)c(O)ccc12`, the figure is 70 nM; as for `Cc1ccc(NC(=O)c2c(NC(=O)C(F)(F)F)sc(-c3ccccc3)c2C)c(C)c1`, 7500 nM. On to `COC(=O)c1cc2cc3cc4cc(CC(=O)O)c(C(=O)/C=C(\O)c5ccccc5O)c(OC)c4c(OC)c3c(O)c2c(=O)o1`, for which the IC50 is 1200 nM. The same measure for `COc1ccccc1N=C(NOCc1ccc(Cl)cc1Cl)c1nonc1N`: 8800 nM. In the case of `COc1cccc(-c2nc3cc(NC(=O)/C=C\c4ccccc4)ccc3o2)c1`, the half-inhibitory concentration (IC50) was 800 nM. As for `O=c1c(O)cccc2cc(O)c(O)c(O)c12`, the figure is 900 nM.
